# Source: patent EP4759814A1, “TRICYCLIC COMPOUND AND USE THEREOF AS MAT2A INHIBITOR” (SK Biopharmaceuticals Co., Ltd., priority 2023, dated 2025)
# Assays:
# MAT2A = target: T1, MAT2A (Homo sapiens, UniProt P31153); assay: MAT2A inhibitory activity, colorimetric phosphate detection (PiColorLock) enzyme assay; type: biochemical; details: Test Condition 1 or 2 (not stated which per compound); absorbance at 630 nm
# T1 construct: purchased BPS Bioscience (USA) 71401
# Method: In vitro assay: Methionine and adenosine triphosphate (ATP) are converted into S-adenosylmethionine (SAM) and inorganic phosphate (pi) via the catalytic action of methionine adenosyltransferase 2A (MAT2A). The produced pi is detected by the PiColorLock™ Phosphate Detection Reagent, which is a colorimetric assay, and the activity of MAT2A can be evaluated according to the amount of pi generated during the enzyme reaction. Each compound was evaluated under Test Condition 1 or 2 as described below.
# • Concentration of MAT2A inhibitor: maximum concentration of 50 µM, 5-fold dilution (7 groups in total) • MAT2A concentration: 12 ng/µL • ATP and Met concentration: 100 µM, 80 µM
# • Concentration of MAT2A inhibitor: maximum concentration of 1 µM, 3-fold dilution (7 groups in total) • MAT2A concentration: 4 ng/µL • ATP and Met concentration: 300 µM, 150 µM • Reagents: Methionine (catalog number M5308) and ATP (catalog number A2383) were purchased from Sigma-Aldrich (USA). MAT2A (catalog number 71401) was purchased from BPS Bioscience (USA), and PiColorLock™ Phosphate Detection Reagent (catalog number 303-0030) was purchased from Novus (USA).
# Assay buffer composition: 50 mM Tris-HCl pH 8.0, 50 mM KCI, 15 mM MgCl2, 0.3 mM EDTA, 0.005 % (w/v) BSA
# Experimental procedure: Each compound was diluted 5-fold or 3-fold based on the maximum concentration (5 mM or 1 mM or 0.1 mM) using DMSO. The diluted compounds were diluted 20-fold using assay buffer, and then mixed at a volume ratio of 1:2 with MAT2A (30 ng/µL or 10 ng/µL) diluted with assay buffer and treated for 30 minutes at room temperature. The negative control group is a group untreated with both the MAT2A enzyme and the compound according to an embodiment of the present application, and the positive control group is a group treated only with the MAT2A enzyme and untreated with the compound according to an embodiment of the present application.
# In each well of a 384-well plate, 30 µL of the mixed solution and 20 µL of a 1:1 mixed solution of ATP (0.5 mM or 1.5 mM) and Met (0.4 mM or 0.75 mM) were mixed and then treated for 1 hour at room temperature. After the enzyme reaction, 13 µL of a 100:1 mixed solution of PiColorLockTM and Accelerator was treated in each well and reacted for 5 minutes at room temperature. After treating 5 µL of Stabilizer in each well and reacting for 25 minutes at room temperature, the absorbance at 630 nm was measured using SpectraMax M4 (Molecular Devices, USA) to calculate the IC50 value of the compound.
# Analysis method: The enzyme activity (%) of each experimental group was calculated as {(average O.D. of compound-treated group - average O.D. of negative control group)/(average O.D. of positive control group - average O.D. of negative control group)} * 100. After preparing a dose-response curve (4-parameter) using the enzyme activity according to the treatment concentration of each compound in GraphPad Prism 9, the 50 % of enzyme inhibitory activity value (IC50) was calculated through non-linear regression analysis. The IC50 results measured for the MAT2A activity inhibitory ability of the compounds according to an embodiment of the present application are shown in Table 2 (+++: more than 1 to 100 nM, ++: more than 100 to 1,000 nM, +: more than 1,000 to 10,000 nM, -: more than 10,000 nM).
# [1] = tested on: HCT116 (MTAP del) cell line; assay: Cell proliferation inhibition in MTAP-deficient cancer cells, WST-1 assay; type: cell-based; details: Homo sapiens, HCT-116, 120 hours of drug treatment, maximum concentration 10 µM, read-out: HCT116 MTAP^-/- (IC50, cell proliferation inhibited by 50%)
# Method: (§1) The HCT116 (MTAP del) cell line, which is a colorectal cancer cell line with deletion of MTAP gene, was treated with a compound according to an embodiment of the present application as a MAT2A inhibitor, and after culturing for 120 hours, the change in the number of cells was measured with a WST-1 assay reagent. The WST-1 assay is an assay that measures the number of cells by measuring the generation of a chromogenic substance called formazan from tetrazolium salts by intracellular mitochondrial dehydrogenase. In addition, as a control group, a wild-type colorectal cancer HCT116 (MTAP WT) cell line containing the MTAP gene was used to perform the experiment in the same manner as the experimental group.
# (§2) Cell lines and reagents: HCT116 (MTAP WT (catalog number HD PAR-034), MTAP del (catalog number HD R02-033)) cell lines were purchased from Horizon Discovery (USA), and RPMI1640 medium (catalog number 22400-093), FBS (Fetal Bovine serum, catalog number 16000044), and Penicillin/Streptomycin (catalog number 15140-122) were purchased from GIBCO (USA). WST-1 (catalog number EZ-BULK150) was purchased from Dogen (Korea).
# (§3) Experimental procedure: HCT116 (MTAP WT, MTAP del) cell lines were dispensed into a 96-well plate at a concentration of 1,000 cells/well in RPMI1640 culture medium containing 10% FBS and 1% Penicillin/Streptomycin, and allowed to attach for 24 hours. When the cells were attached to the plate, the drug was diluted 4-fold from a maximum concentration of 10 µM and treated on the cells. After 120 hours of drug treatment, 20 µL of WST-1 solution was treated for 2 hours, and absorbance at 450 nm was measured using SpectraMax M4 (Molecular Devices). Data analysis was calculated by taking the DMSO control group value as 100%. For the IC50 value, the concentration at which cell proliferation is inhibited by 50% was calculated through interpolation using a 4-parameter fit of the dose-response curve using the GraphPad Prism 8.4.3 program. The cancer cell proliferation inhibitory ability and selectivity in MTAP-deficient cancer cells of the compounds according to an embodiment of the present application are described in Table 3 (+++: 1 to 100 nM, ++: more than 100 to 1,000 nM, +: more than 1 to 10 µM, -: more than 10 µM).
# [2] = tested on: HCT116 (MTAP WT) cell line; assay: Cell proliferation inhibition in wild-type control cells, WST-1 assay; type: cell-based; details: Homo sapiens, HCT-116, 120 hours of drug treatment, maximum concentration 10 µM, read-out: HCT116 WT (IC50, cell proliferation inhibited by 50%)
# Method: as §1, §2, §3
# T1 sequence (P31153 whole entry): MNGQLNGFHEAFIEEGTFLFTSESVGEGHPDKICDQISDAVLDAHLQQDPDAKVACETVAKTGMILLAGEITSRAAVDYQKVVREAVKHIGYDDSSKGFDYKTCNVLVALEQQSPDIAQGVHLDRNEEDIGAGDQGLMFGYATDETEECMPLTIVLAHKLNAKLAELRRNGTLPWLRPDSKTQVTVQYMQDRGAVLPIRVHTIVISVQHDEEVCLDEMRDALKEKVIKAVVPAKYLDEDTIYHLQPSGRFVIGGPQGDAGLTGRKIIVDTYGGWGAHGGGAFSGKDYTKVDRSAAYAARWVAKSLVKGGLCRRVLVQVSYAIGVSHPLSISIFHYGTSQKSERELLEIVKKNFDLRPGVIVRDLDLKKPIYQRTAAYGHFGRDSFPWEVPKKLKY
Compound,IC50 (MAT2A) [nM],IC50 [1] [nM],IC50 [2] [nM]
"Cc1ccccc1-n1c(=O)c2nccn2c2ccc(C#N)cc21 [Example 18, 4-oxo-5-(o-tolyl)-4,5-dihydroimidazo[1,2-a]quinoxalin-7-carbonitrile]",1000 to 10000,1000 to 10000,> 10000
"Cc1ccccc1-n1c(=O)c2nccn2c2ccc(OC(F)(F)F)cc21 [Example 19, 5-(o-tolyl)-7-(trifluoromethoxy)imidazo[1,2-a]quinoxalin-4(5H)-one]",1000 to 10000,1000 to 10000,> 10000
"Cc1ccccc1-n1c(=O)c2nccn2c2ccc(C(F)F)cc21 [Example 22, 7-(difluoromethyl)-5-(o-tolyl)imidazo[1,2-a]quinoxalin-4(5H)-one]",1 to 100,1 to 100,> 10000
"Cc1ccccc1-n1c(=O)c2nccn2c2ccc(C(F)(F)F)cc21 [Example 26, 5-(o-tolyl)-7-(trifluoromethyl)imidazo[1,2-a]quinoxalin-4(5H)-one]",1 to 100,1 to 100,> 10000
"Cc1c(F)cccc1-n1c(=O)c2nccn2c2ccc(C#N)cc21 [Example 27, 5-(3-fluoro-2-methylphenyl)-4-oxo-4,5-dihydroimidazo[1,2-a]quinoxalin-7-carbonitrile]",100 to 1000,100 to 1000,> 10000
"Cc1ccccc1-n1c(=O)c2nccn2c2ccc(OCC(F)(F)F)cc21 [Example 28, 5-(o-tolyl)-7-(2,2,2-trifluoroethoxy)imidazo[1,2-a]quinoxalin-4(5H)-one]",> 10000,> 10000,> 10000
"CCOc1ccc2c(c1)n(-c1ccccc1C)c(=O)c1nccn12 [Example 30, 7-ethoxy-5-(o-tolyl)imidazo[1,2-a]quinoxalin-4(5H)-one]",> 10000,> 10000,> 10000
"Cc1ccccc1-n1c(=O)c2nccn2c2ccc(Br)cc21 [Example 32, 7-bromo-5-(o-tolyl)imidazo[1,2-a]quinoxalin-4(5H)-one]",1 to 100,1 to 100,1000 to 10000
"Cc1ncccc1-n1c(=O)c2ncc(C)n2c2ccc(Cl)cc21 [Example 34, 7-chloro-1-methyl-5-(2-methylpyridin-3-yl)imidazo[1,2-a]quinoxalin-4(5H)-one]",1 to 100,1 to 100,100 to 1000
"Cc1ccc2c(n1)n(-c1ccccc1C)c(=O)c1nccn12 [Example 36, 7-methyl-5-(o-tolyl)imidazo[1,2-a]pyrido[2,3-e]pyrazin-4(5H)-one]",100 to 1000,100 to 1000,> 10000
"COc1ccccc1-n1c(=O)c2nccn2c2ccc(Cl)cc21 [Example 37, 7-chloro-5-(2-methoxyphenyl)imidazo[1,2-a]quinoxalin-4(5H)-one]",100 to 1000,100 to 1000,> 10000
"O=c1c2nccn2c2ccc(Cl)cc2n1-c1cccc(F)c1 [Example 40, 7-chloro-5-(3-fluorophenyl)imidazo[1,2-a]quinoxalin-4(5H)-one]",100 to 1000,100 to 1000,> 10000
"Cc1ccccc1-n1c(=O)c2nccn2c2ccc(C(F)F)nc21 [Example 46, 7-(difluoromethyl)-5-(o-tolyl)imidazo[1,2-a]pyrido[2,3-e]pyrazin-4(5H)-one]",100 to 1000,100 to 1000,> 10000

# Results, then the compound that gave them:
IC50 (MAT2A) [nM],IC50 [1] [nM],IC50 [2] [nM],Compound
100 to 1000,100 to 1000,> 10000,"Cc1ccccc1-n1c(=O)c2nccn2c2ccc(C3CC3)cc21 [Example 16, 7-cyclopropyl-5-(o-tolyl)imidazo[1,2-a]quinoxalin-4(5H)-one]"
100 to 1000,100 to 1000,> 10000,"COc1ccc2c(c1)n(-c1ccccc1C)c(=O)c1nccn12 [Example 17, 7-methoxy-5-(o-tolyl)imidazo[1,2-a]quinoxalin-4(5H)-one]"
1 to 100,100 to 1000,> 10000,"O=c1c2nccn2c2ccc(Cl)cc2n1-c1ccccc1Cl [Example 23, 7-chloro-5-(2-chlorophenyl)imidazo[1,2-a]quinoxalin-4(5H)-one]"
100 to 1000,> 10000,> 10000,"CC(=O)c1ccc2c(c1)n(-c1ccccc1C)c(=O)c1nccn12 [Example 24, 7-acetyl-5-(o-tolyl)imidazo[1,2-a]quinoxalin-4(5H)-one]"
1 to 100,1 to 100,100 to 1000,"Cc1ccccc1-n1c(=O)c2nccn2c2ccc(I)cc21 [Example 25, 7-Iodo-5-(o-tolyl)imidazo[1,2-a]quinoxalin-4(5H)-one]"
1 to 100,1 to 100,100 to 1000,"Cc1ncccc1-n1c(=O)c2nccn2c2ccc(Cl)cc21 [Example 33, 7-chloro-5-(2-methylpyridin-3-yl)imidazo[1,2-a]quinoxalin-4(5H)-one]"
100 to 1000,100 to 1000,> 10000,"Cc1ccccc1-n1c(=O)c2nccn2c2ccc(Cl)nc21 [Example 35, 7-chloro-5-(o-tolyl)imidazo[1,2-a]pyrido[2,3-e]pyrazin-4(5H)-one]"
100 to 1000,1 to 100,> 10000,"O=c1c2nccn2c2ccc(Cl)cc2n1-c1ccccc1Br [Example 38, 5-(2-bromophenyl)-7-chloroimidazo[1,2-a]quinoxalin-4(5H)-one]"
100 to 1000,100 to 1000,> 10000,"Cc1cccc(-n2c(=O)c3nccn3c3ccc(Cl)cc32)c1 [Example 39, 7-chloro-5-(m-tolyl)imidazo[1,2-a]quinoxalin-4(5H)-one]"
1 to 100,1 to 100,100 to 1000,"Cc1cn2c(n1)c(=O)n(-c1cccnc1C)c1cc(Cl)ccc12 [Example 45, 7-chloro-2-methyl-5-(2-methylpyridin-3-yl)imidazo[1,2-a]quinoxalin-4(5H)-one]"
